From patent US20240124504A1, “AROMATIC HETEROCYCLIC COMPOUND, AND PHARMACEUTICAL COMPOSITION AND APPLICATION THEREOF” (GT APEIRON THERAPEUTICS LIMITED, priority 2020, published 2024)

Key:
[1] = Caco-2 membrane permeability and efflux rate; format: in vitro ADME; conditions: human, Caco-2, Caco-2, 5 μM
Procedure: The recovered Caco-2 cell suspension was seeded into a […] plate and cultured for 14-18 days. After being cultured for 14 days, the cells were fused and differentiated to be ready for a transport experiment. The Caco-2 cell plate was taken out from the incubator. Stock solutions of a to-be-tested compound and a control compound were formulated with DMSO and diluted with an HBSS (10 mM HEPES, pH 7.4) buffer to a final concentration of 5 μM. A test compound solution and a control drug solution were added to each well (top end) of an insert culture plate, and the HBSS (10 mM HEPES, pH 7.4) buffer was added to each well of a test compound receiving plate (basal end). When measuring the transport rate of the compound from the basal end to the top end, the test compound solution and the control drug solution were added to each well of the receiving plate (basal end), the HBSS (10 mM HEPES, pH 7.4) buffer solution was added to each well (top end) of the insert culture plate for the test compound solution, and incubation was carried out for 2 hours in a CO2 incubator at 37° C. After the transport experiment was completed, vortexing was carried out for 10 minutes at 1000 rpm. After sample quenching at each time point, LC/MS/MS analysis was carried out. A fluorescence value was measured after a two-hour transport experiment, a lucifer yellow solution was added in a transwell chamber (top end), a transport buffer solution was added in the basal end, and incubation was carried out for 30 minutes in the CO2 incubator at 37° C. The solution was taken out directly from the top end and the basal end (using basolateral wells) and transferred to a new 96-well plate. A cell fluorescence value was measured by a microplate reader (to detect membrane integrity), an excitation wavelength was […], and an emission wavelength was […]. All data were calculated by using Microsoft Excel, and a peak area was calculated according to chromatograms. An apparent permeability coefficient (Papp, unit: 10-6, cm/s) and an efflux rate (ER) of the compounds in Caco-2 cells were calculated by the specific concentrations of a receiving end and an administering end.

[2] = molecular target: T1, CDK12 (aa686-1082)/cyclinK complex (Homo sapiens, UniProt Q9NYV4); test: In-vitro enzymatic inhibitory activity testing, CDK12 inhibition assay (Caliper EZ Reader II); format: biochemical; conditions: CDK12/cyclinK 50 nM, 180 min at 27° C.; read-out: CDK12 IC50
T1 construct: A CDK12 (aa686-1082)/cyclinK complex (50 nM)
T1 sequence (Q9NYV4 686-1082, species assumed): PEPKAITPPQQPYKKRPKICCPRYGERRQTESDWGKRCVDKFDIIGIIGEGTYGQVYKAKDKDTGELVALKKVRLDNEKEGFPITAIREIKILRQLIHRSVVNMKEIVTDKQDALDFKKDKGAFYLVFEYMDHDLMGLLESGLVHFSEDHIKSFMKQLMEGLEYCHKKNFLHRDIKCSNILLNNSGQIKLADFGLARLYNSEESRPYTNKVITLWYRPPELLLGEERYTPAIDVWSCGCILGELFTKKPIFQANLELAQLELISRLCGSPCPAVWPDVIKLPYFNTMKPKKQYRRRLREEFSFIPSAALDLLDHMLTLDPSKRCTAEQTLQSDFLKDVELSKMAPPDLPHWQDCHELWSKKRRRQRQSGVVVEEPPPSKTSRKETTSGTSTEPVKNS
T1 sequence (O75909 whole entry partner, species assumed, the tested form may be a part): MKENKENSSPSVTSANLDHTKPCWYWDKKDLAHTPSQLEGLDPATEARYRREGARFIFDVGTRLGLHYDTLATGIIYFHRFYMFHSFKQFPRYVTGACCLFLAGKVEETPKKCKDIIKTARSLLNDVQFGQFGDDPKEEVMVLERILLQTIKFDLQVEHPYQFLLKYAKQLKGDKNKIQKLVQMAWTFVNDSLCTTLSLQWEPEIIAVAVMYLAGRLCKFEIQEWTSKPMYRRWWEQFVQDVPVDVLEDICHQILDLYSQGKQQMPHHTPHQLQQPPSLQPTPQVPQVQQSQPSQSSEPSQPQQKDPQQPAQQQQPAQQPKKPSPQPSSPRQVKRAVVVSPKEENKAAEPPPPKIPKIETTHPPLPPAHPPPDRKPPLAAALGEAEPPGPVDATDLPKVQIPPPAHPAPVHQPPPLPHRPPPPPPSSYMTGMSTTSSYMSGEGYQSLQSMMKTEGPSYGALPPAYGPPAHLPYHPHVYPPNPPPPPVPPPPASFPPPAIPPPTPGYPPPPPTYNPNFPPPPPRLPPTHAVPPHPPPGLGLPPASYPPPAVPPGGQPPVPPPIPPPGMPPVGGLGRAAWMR
Method in brief: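 CDK12 (aa686-1082)/cyclinK complex at 50 nM was pre-incubated with compound for 10 min, then reacted 180 min at 27° C with ATP and 2 μM 5-FAM-CDK9tide in pH 6.5 MES buffer with 10 mM MgCl2. Reactions were EDTA-quenched and product resolved electrophoretically; IC50 from nonlinear curve fit.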

CDK2/cyclinE1 complex = CDK2/cyclinE1 complex (Homo sapiens, UniProt P24941); test: In-vitro enzymatic inhibitory activity testing, CDK2 inhibition assay (Caliper EZ Reader II); format: biochemical; conditions: CDK2/cyclinE1 0.5 nM, 180 min at 27° C.
Method in brief: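 CDK2/cyclinE1 (0.5 nM) phosphorylated 5-FAM-CDK7tide (2 μM) in MES buffer pH 6.5 with MgCl2, Tween 20 and BSA. Substrate and product were separated electrophoretically on a Caliper EZ Reader II. IC50 values came from nonlinear dose-response fits.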

[3] = molecular target: CDK7/cyclinH/MAT1 complex (Homo sapiens, UniProt P50613); test: In-vitro enzymatic inhibitory activity testing, CDK7 inhibition assay (Caliper EZ Reader II); format: biochemical; conditions: CDK7/cyclinH/MAT1 6 nM, 180 min at 27° C.
Chain of CDK7/cyclinH/MAT1 complex (P50613 whole entry, species assumed): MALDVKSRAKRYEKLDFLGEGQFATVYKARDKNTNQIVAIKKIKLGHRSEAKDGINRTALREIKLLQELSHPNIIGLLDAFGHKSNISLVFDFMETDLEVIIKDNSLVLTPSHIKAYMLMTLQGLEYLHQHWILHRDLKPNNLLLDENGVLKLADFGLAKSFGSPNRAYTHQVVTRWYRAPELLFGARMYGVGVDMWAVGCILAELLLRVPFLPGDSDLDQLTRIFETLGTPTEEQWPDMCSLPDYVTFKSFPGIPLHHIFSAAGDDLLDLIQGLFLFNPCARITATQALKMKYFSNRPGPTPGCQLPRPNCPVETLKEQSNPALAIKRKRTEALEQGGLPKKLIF
Chain of CDK7/cyclinH/MAT1 complex (P51946 whole entry partner, species assumed): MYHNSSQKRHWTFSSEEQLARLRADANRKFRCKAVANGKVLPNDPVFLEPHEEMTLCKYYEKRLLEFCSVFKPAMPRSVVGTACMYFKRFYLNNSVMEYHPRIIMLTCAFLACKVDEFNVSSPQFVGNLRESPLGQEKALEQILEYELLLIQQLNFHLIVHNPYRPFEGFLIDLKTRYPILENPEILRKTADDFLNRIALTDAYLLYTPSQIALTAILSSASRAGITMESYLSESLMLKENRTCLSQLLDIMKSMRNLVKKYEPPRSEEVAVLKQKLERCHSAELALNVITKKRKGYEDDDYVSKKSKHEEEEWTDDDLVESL
Chain of CDK7/cyclinH/MAT1 complex (P51948 whole entry partner, species assumed): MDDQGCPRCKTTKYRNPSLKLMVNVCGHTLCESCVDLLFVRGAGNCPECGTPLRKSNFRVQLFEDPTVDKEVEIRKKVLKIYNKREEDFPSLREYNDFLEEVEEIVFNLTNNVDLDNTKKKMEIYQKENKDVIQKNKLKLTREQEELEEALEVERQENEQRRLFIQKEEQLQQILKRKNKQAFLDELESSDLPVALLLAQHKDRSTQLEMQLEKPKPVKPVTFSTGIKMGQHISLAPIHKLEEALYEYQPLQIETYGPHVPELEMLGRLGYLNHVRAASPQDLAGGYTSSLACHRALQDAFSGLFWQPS
Method in brief: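 Enzyme preincubated 10 min with compound, then peptide substrate plus ATP added in 80 mM MES pH 6.5, 10 mM MgCl2 buffer; 180 min at 27 °C, stopped with EDTA.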

ovarian cancer A2780 = test: Cell biological activity detection (CyQuant, 72 hours), A2780; format: cell-based, human; conditions: Homo sapiens, A2780, 72 h, A2780 cells, incubation for 72 hours
Method in brief: (§1)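 IC50 derived from CyQuant Direct nuclear staining (488 nm excitation) after 72 h compound exposure at 37 °C, 5% CO2. Compounds tested in 9 concentrations from 10 μM, 1:4 steps, 0.2% DMSO, on A2780 or HCC70 cells plated overnight at 2000/well in RPMI 1640 + 10% FBS.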

[4] = system: human breast cancer cells HCC70; test: Cell biological activity detection (CyQuant, 72 hours), HCC70; format: cell-based; conditions: Homo sapiens, HCC70, 72 h, incubation for 72 hours
Method in brief: as §1

CDK9/cyclinT1 complex = CDK9/cyclinT1 complex (Homo sapiens, UniProt P50750); test: In-vitro enzymatic inhibitory activity testing, CDK9 inhibition assay (Caliper EZ Reader II); format: biochemical; conditions: CDK9/cyclinT1 8 nM, 180 min at 27° C.
Chain of CDK9/cyclinT1 complex (P50750 whole entry, species assumed): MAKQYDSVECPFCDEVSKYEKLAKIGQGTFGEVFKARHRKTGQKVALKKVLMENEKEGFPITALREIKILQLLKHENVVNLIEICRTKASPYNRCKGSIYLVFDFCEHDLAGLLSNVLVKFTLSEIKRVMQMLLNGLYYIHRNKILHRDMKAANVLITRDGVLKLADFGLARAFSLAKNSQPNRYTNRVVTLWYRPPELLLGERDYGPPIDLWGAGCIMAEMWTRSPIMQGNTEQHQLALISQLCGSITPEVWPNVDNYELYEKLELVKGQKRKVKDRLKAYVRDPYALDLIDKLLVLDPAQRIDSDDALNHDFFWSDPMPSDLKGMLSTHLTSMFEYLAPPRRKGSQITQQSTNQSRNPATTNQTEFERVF
Chain of CDK9/cyclinT1 complex (O60563 whole entry partner, species assumed): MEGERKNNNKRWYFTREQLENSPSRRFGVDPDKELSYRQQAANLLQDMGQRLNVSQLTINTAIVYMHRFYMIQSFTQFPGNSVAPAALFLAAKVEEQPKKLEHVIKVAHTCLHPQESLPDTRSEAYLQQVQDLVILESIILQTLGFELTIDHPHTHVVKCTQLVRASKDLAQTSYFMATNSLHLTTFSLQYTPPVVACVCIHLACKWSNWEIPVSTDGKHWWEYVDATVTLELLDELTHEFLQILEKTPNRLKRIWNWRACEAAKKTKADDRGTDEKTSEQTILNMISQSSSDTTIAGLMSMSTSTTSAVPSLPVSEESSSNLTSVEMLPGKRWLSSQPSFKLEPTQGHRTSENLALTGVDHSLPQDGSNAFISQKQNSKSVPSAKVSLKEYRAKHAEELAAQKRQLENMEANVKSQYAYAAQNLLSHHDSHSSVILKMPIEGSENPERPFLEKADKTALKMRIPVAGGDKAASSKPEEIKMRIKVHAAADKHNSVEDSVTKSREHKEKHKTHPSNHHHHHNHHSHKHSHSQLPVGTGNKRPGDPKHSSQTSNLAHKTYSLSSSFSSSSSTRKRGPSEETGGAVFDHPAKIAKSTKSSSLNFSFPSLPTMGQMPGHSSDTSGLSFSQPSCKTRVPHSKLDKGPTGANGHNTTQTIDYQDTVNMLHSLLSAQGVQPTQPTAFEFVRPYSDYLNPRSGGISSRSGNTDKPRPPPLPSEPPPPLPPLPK
Method in brief: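 Phosphorylated and unphosphorylated fluorescent peptide were resolved by mobility-shift electrophoresis, with IC50 taken from a nonlinear regression of dose-response data. Reactions ran 180 min at 27 °C in MES buffer pH 6.5 with MgCl2, after 10 min enzyme–compound preincubation, using 8 nM CDK9/cyclinT1 and 5-FAM-CDK9tide.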

Row | SMILES | Papp B→A at 2 h, 5 μM ([1]; basal end to top end) | efflux ratio at 2 h, 5 μM ([1]; read-out: ER (efflux rate)) | Papp A→B at 2 h, 5 μM ([1]; top end to basal end) | IC50 [2] | IC50 (CDK2/cyclinE1 complex) | IC50 [3] | IC50 (ovarian cancer A2780) | IC50 (CDK9/cyclinT1 complex) | IC50 [4]
1 | CP(C)(=O)c1cccc2c(-c3nc(N[C@H]4CCCNC4)ncc3C(F)(F)F)c[nH]c12 [A control compound WO2018013867 (353), reference compound] | 15.9 ×10⁻⁶ cm/s | 70.7 | 0.23 ×10⁻⁶ cm/s |  |  |  |  |  | 
2 | CP(C)(=O)c1cccc2c(-c3nc(NCC4(O)CCCC4)ncc3C(F)(F)F)c[nH]c12 [Compound 151] |  |  |  | > 50 µM | 5 to 50 µM | 0.02 to 0.2 µM | 0.02 to 0.2 µM | > 50 µM | 0.02 to 0.2 µM
3 | CP(C)(=O)c1cccc2c(-c3nc(NCC4(O)CC4)ncc3C(F)(F)F)c[nH]c12 [Compound 164] |  |  |  | > 50 µM | 5 to 50 µM | < 0.02 µM | 0.02 to 0.2 µM | > 50 µM | 0.02 to 0.2 µM
4 | CP(C)(=O)c1cccc2c(-c3nc(N[C@H]4CCCC[C@@H]4O)ncc3C(F)(F)F)c[nH]c12 [Compound 165, (3-(2-(((1S,2S)-2-hydroxycyclohexyl)amino)-5-(trifluoromethyl)pyrimidin-4-yl)-1H-indole-7-yl)dimethylphosphine oxide] |  |  |  | > 50 µM | 5 to 50 µM | 0.02 to 0.2 µM | 0.02 to 0.2 µM | > 50 µM | 0.02 to 0.2 µM
5 | CP(C)(=O)c1cccc2c(-c3nc(NC4(CO)CCOCC4)ncc3C(F)(F)F)c[nH]c12 [Compound 166, (3-(2-((4-(hydroxymethyl)tetrahydro-2H-pyran-4-yl)amino)-5-(trifluoromethyl)pyrimidin-4-yl)-1H-indole-7-yl)dimethylphosphine oxide] |  |  |  | > 50 µM | > 50 µM | 0.02 to 0.2 µM | 0.2 to 5 µM | > 50 µM | 0.2 to 5 µM
6 | CP(C)(=O)c1cccc2c(-c3nc(N[C@@H]4COCC[C@H]4O)ncc3C(F)(F)F)c[nH]c12 [Compound 167] |  |  |  | > 50 µM | > 50 µM | 0.02 to 0.2 µM | 0.2 to 5 µM | > 50 µM | 0.2 to 5 µM
7 | CP(C)(=O)c1cccc2c(-c3nc(NCC4(O)CCOCC4)ncc3C(F)(F)F)c[nH]c12 [Compound 175] |  |  |  | > 50 µM | 5 to 50 µM | 0.02 to 0.2 µM | 0.2 to 5 µM | > 50 µM | 0.02 to 0.2 µM
8 | C[C@@H](CO)Nc1ncc(Br)c(-c2c[nH]c3c(P(C)(C)=O)cccc23)n1 [Compound 177, (S)-(3-(5-bromo-2-((1-hydroxypropan-2-yl)amino)pyrimidin-4-yl)-1H-indole-7-yl)dimethylphosphine oxide] |  |  |  | 5 to 50 µM | 0.2 to 5 µM | < 0.02 µM | < 0.02 µM | 5 to 50 µM | < 0.02 µM
9 | Cc1cnc(N[C@@H](C)CO)nc1-c1c[nH]c2c(P(C)(C)=O)cccc12 [Compound 178] |  |  |  | > 50 µM | 5 to 50 µM | 0.02 to 0.2 µM | 0.02 to 0.2 µM | > 50 µM | 0.2 to 5 µM
10 | C[C@@H](CO)Nc1ncc(C(F)(F)F)c(-c2c[nH]c3nc(C4=CCOCC4)ccc23)n1 [Compound 181, (S)-2-((4-(6-(3,6-dihydro-2H-pyran-4-yl)-1H-pyrrolo[2,3-b]pyridin-3-yl)-5-(trifluoromethyl)pyrimidin-2-yl)amino)propan-1-ol] |  |  |  | 5 to 50 µM | 0.2 to 5 µM | 0.02 to 0.2 µM | 0.02 to 0.2 µM | > 50 µM | 0.2 to 5 µM

The next lines start with results.

Row | Papp B→A at 2 h, 5 μM ([1]; basal end to top end) | efflux ratio at 2 h, 5 μM ([1]; read-out: ER (efflux rate)) | Papp A→B at 2 h, 5 μM ([1]; top end to basal end) | IC50 [2] | IC50 (CDK2/cyclinE1 complex) | IC50 [3] | IC50 (ovarian cancer A2780) | IC50 (CDK9/cyclinT1 complex) | SMILES | IC50 [4]
11 |  |  |  | > 50 µM | 5 to 50 µM | < 0.02 µM | 0.02 to 0.2 µM | > 50 µM | CP(C)(=O)c1cccc2c(-c3nc(N[C@@H](CO)C4CC4)ncc3C(F)(F)F)c[nH]c12 [Compound 159, (R)-(3-(2-((1-cyclopropyl-2-hydroxyethyl)amino)-5-(trifluoromethyl)pyrimidin-4-yl)-1H-indole-7-yl)dimethylphosphine oxide] | 0.02 to 0.2 µM
12 |  |  |  | > 50 µM | 5 to 50 µM | 0.02 to 0.2 µM | 0.2 to 5 µM | > 50 µM | CP(C)(=O)c1cccc2c(-c3nc(NCC4(CO)CC4)ncc3C(F)(F)F)c[nH]c12 [Compound 160] | 0.2 to 5 µM
13 |  |  |  | > 50 µM | 5 to 50 µM | < 0.02 µM | 0.2 to 5 µM | > 50 µM | CC[C@](C)(CO)Nc1ncc(C(F)(F)F)c(-c2c[nH]c3c(P(C)(C)=O)cccc23)n1 [Compound 161, (R)-(3-(2-((1-hydroxy-2-methylbutan-2-yl)amino)-5-(trifluoromethyl)pyrimidin-4-yl)-1H-indole-7-yl)dimethylphosphine oxide] | 0.2 to 5 µM
14 |  |  |  | > 50 µM | 5 to 50 µM | 0.02 to 0.2 µM | 0.02 to 0.2 µM | > 50 µM | CC(C)C(O)CNc1ncc(C(F)(F)F)c(-c2c[nH]c3c(P(C)(C)=O)cccc23)n1 (stereo not drawn) [Compound 162, (3-(2-((2-hydroxy-3-methylbutyl)amino)-5-(trifluoromethyl)pyrimidin-4-yl)-1H-indole-7-yl)dimethylphosphine oxide] | 0.2 to 5 µM
15 |  |  |  | > 50 µM | 5 to 50 µM | 0.02 to 0.2 µM | 0.02 to 0.2 µM | > 50 µM | C[C@H](Nc1ncc(C(F)(F)F)c(-c2c[nH]c3c(P(C)(C)=O)cccc23)n1)C(C)(C)O [Compound 163, (S)-(3-(2-((3-hydroxy-3-methylbutan-2-yl)amino)-5-(trifluoromethyl)pyrimidin-4-yl)-1H-indole-7-yl)dimethylphosphine oxide] | 0.2 to 5 µM
16 |  |  |  | > 50 µM | 0.2 to 5 µM | 0.02 to 0.2 µM | 0.02 to 0.2 µM | > 50 µM | C[C@@H](O)CNc1ncc(C(F)(F)F)c(-c2c[nH]c3c(P(C)(C)=O)cccc23)n1 [Compound 172, (R)-(3-(2-((2-hydroxypropyl)amino)-5-(trifluoromethyl)pyrimidin-4-yl)-1H-indole-7-yl)dimethylphosphine oxide] | 0.02 to 0.2 µM
17 |  |  |  | > 50 µM | 5 to 50 µM | < 0.02 µM | 0.02 to 0.2 µM | > 50 µM | C[C@H](O)CNc1ncc(C(F)(F)F)c(-c2c[nH]c3c(P(C)(C)=O)cccc23)n1 [Compound 173, (S)-(3-(2-((2-hydroxypropyl)amino)-5-(trifluoromethyl)pyrimidin-4-yl)-1H-indole-7-yl)dimethylphosphine oxide] | 0.02 to 0.2 µM
18 |  |  |  | > 50 µM | 5 to 50 µM | < 0.02 µM | < 0.02 µM | > 50 µM | CP(C)(=O)c1cccc2c(-c3nc(NC(CO)CO)ncc3C(F)(F)F)c[nH]c12 [Compound 194, (3-(2-((1,3-dihydroxypropan-2-yl)amino)-5-(trifluoromethyl)pyrimidin-4-yl)-1H-indole-7-yl)dimethylphosphine oxide] | 0.02 to 0.2 µM
